Patent US20090143279A1 (priority 2007, published 2009)
Read-outs that look alike come from different tables or passages of the source.

Legend:
[1] = tested on: reactive oxygen species; type: cell-based, mouse
[2] = tested on: OXPHOS gene expression; type: cell-based, mouse
[3] = tested on: nuOXPHOS transcripts; type: cell-based, mouse
[4] = tested on: cytochrome c; type: cell-based, mouse
[5] = tested on: cellular dehydrogenase activity
[6] = tested on: C2C12 myotubes
[7] = tested on: mtOXPHOS transcripts; type: cell-based, mouse
[8] = tested on: mitochondrial membrane potential; type: cell-based, mouse
[9] = normalized composite Z-score vs mock-treated (DMSO) wells, Conc 20 μM
[10] = composite Z-score vs DMSO, Conc 20 μM
[11] = composite Z-score vs mock-treated (DMSO) wells, Conc 20 μM
[12] = composite Z-score vs mock-treated (DMSO) wells, concentration of each compound in μM
[13] = 20 μM, composite Z-score vs DMSO

Structure (SMILES) | ROS [1, 10] | ROS [1, 11] | GE-HTS [2, 10] | GE-HTS [2, 11] | nucOX [3, 10] | nucOX [3, 11] | cyt c [4, 10] | cyt c [4, 11] | MTT [5, 10] | MTT [5, 11] | Viability [6, 10] | Viability [6, 11] | mitoOX [7, 10] | mitoOX [7, 11] | ΔΨm [8, 10] | ΔΨm [8, 11] | other results
CCCCC[C@H](CC(=O)O)C(=O)O [nonic acid] | – | – | – | – | – | – | – | – | – | – | – | – | – | – | – | – | ROS [1, 9]: 1.211; GE-HTS [2, 9]: −0.080; nucOX [3, 9]: −0.104; cyt c [4, 9]: −0.133; MTT [5, 9]: −1.857; Viability [6, 9]: −1.043; mitoOX [7, 9]: 0.061; ΔΨm [8, 9]: −0.931
Cc1cc(O)c(C=O)c2c1C(=O)Oc1c(C)c(O)c3c(c1O2)C(O)OC3=O (stereo not shown) [norstictic acid] | −0.426 | 0.560 | −0.800 | 0.518 | −0.639 | 0.774 | 0.467 | 0.471 | −0.613 | −0.567 | 0.730 | −0.899 | −1.023 | −0.148 | −0.628 | 0.903 | –
C[C@@H]1[C@H](O)[C@@H](C)/C=C/C=C/CC/C=C/C=C/C=C/C=C/C(O[C@H]2O[C@H](C)[C@@H](O)[C@H](N)[C@@H]2O)CC2O[C@](O)(CC(O)C(O)CCC(O)CC(O)CC(O)CC(=O)O[C@H]1C)CC(O)C2C(=O)O (stereo partly shown) [nystatin] | −0.043 | – | 0.326 | – | 0.284 | – | −0.059 | – | 0.161 | – | 0.794 | – | 0.289 | – | −0.356 | – | –
C[C@@H]1[C@H](O)[C@@H](C)/C=C/C=C/CC/C=C/C=C/C=C/C=C/C(O[C@H]2O[C@H](C)[C@@H](O)[C@H](N)[C@@H]2O)CC2O[C@](O)(CC(O)C(O)CCC(O)CC(O)CC(O)CC(=O)O[C@H]1C)CC(O)C2C(=O)O (stereo partly shown) [nystatine] | – | – | – | – | – | – | – | – | – | – | – | – | – | – | – | – | ROS [1, 12]: 0.765; GE-HTS [2, 12]: −0.436; nucOX [3, 12]: −0.272; cyt c [4, 12]: 0.061; MTT [5, 12]: −1.147; Viability [6, 12]: −0.430; mitoOX [7, 12]: −0.683; ΔΨm [8, 12]: −0.660
CC1(C)OC(=O)C=CC2(C)C1CC(O)C1(C)C2CCC2(C)C(c3ccoc3)OC(=O)C3OC321 (stereo not shown) [obacunol] | – | −0.134 | – | −0.906 | – | −0.927 | – | 0.859 | – | −0.982 | – | 2.016 | – | −0.734 | – | 0.464 | –
C=C(C)[C@H]1COc2cc3oc(=O)ccc3cc2O1 [obliquin] | – | 0.977 | – | −0.313 | – | −0.459 | – | −1.172 | – | −0.268 | – | 0.539 | – | 0.105 | – | 0.088 | –
C[C@@H]([C@H]1OC(C)(C)[C@@H](O)[C@H]1O)[C@@H]1CC[C@]2(C)C3=CC[C@H]4C(C)(C)C(=O)CC[C@]4(C)[C@H]3CC[C@@]12C [odoratone] | – | 0.083 | – | −0.994 | – | −0.988 | – | 0.707 | – | −1.060 | – | 0.542 | – | −0.873 | – | 0.367 | –
CC1COc2c(N3CCN(C)CC3)c(F)cc3c(=O)c(C(=O)O)cn1c23 (stereo not shown) [ofloxacin] | – | – | – | – | – | – | – | – | – | – | – | – | – | – | – | – | ROS [1]: 0.908; ROS [1, 13]: −0.182; GE-HTS [2]: 0.182; GE-HTS [2, 13]: −0.458; nucOX [3]: 0.059; nucOX [3, 13]: −0.622; cyt c [4]: 0.492; cyt c [4, 13]: 0.309; MTT [5]: −0.967; MTT [5, 13]: −1.248; Viability [6]: −0.425; Viability [6, 13]: −1.148; mitoOX [7]: 0.353; mitoOX [7, 13]: −0.041; ΔΨm [8]: −0.891; ΔΨm [8, 13]: −0.281
CC1(C)CC[C@]2(C(=O)O)CC[C@]3(C)C(=CC[C@@H]4[C@@]5(C)CC[C@H](O)C(C)(C)[C@@H]5CC[C@]43C)[C@@H]2C1 [oleanoic acid] | – | −0.144 | – | −1.379 | – | −1.408 | – | 0.754 | – | −0.720 | – | 0.492 | – | −1.014 | – | −0.910 | –
Cc1cc(O)cc(O)c1C(=O)O [orsellinic acid] | – | 1.236 | – | −0.348 | – | −0.350 | – | −0.015 | – | −1.311 | – | −0.320 | – | −0.333 | – | −0.846 | –
C[C@@H]1O[C@@H](O[C@H]2C[C@@H](O)[C@]3(CO)[C@H]4[C@H](O)C[C@]5(C)[C@@H](C6=CC(=O)OC6)CC[C@]5(O)[C@@H]4CC[C@]3(O)C2)[C@H](O)[C@H](O)[C@H]1O [ouabain] | 0.466 | – | −1.278 | – | −0.986 | – | 0.262 | – | −2.101 | – | −0.631 | – | −1.547 | – | −1.093 | – | –
Cc1onc(-c2ccccc2)c1C(=O)N[C@@H]1C(=O)N2[C@@H]1SC(C)(C)[C@@H]2C(=O)[O-].[Na+] [oxacillin sodium] | 0.572 | – | −0.790 | – | −0.629 | – | −0.361 | – | −1.064 | – | −1.101 | – | −0.881 | – | −0.432 | – | –
